Measured values taken from ChEMBL document CHEMBL3875162, “Synthesis and biological evaluation of new benzimidazole-thiazolidinedione hybrids as potential cytotoxic and apoptosis inducing agents” (Eur J Med Chem, 2016).
Activity calls are given as the source filed them. The rule behind the calls is not given here.

What was measured:
[1] = Antimigratory activity in human A549 cells assessed as cell migration at 15 uM after 24 hrs by phase contrast microscopy-based wound healing assay relative to control; format: functional
A549 [2] = assay: Induction of apoptosis in human A549 cells after 24 hrs by Annexin V-FITC/propidium iodide staining based flow cytometry; format: functional, cell-based
A549 [3] = assay: Induction of apoptosis in human A549 cells assessed as necrotic cells at 10 uM after 24 hrs by Annexin V-FITC/propidium iodide staining based flow cytometry (reference value: 2.3%); format: functional
A549 [4] = assay: Induction of apoptosis in human A549 cells assessed as late apoptotic cells at 10 uM after 24 hrs by Annexin V-FITC/propidium iodide staining based flow cytometry (reference value: 0.8%); format: functional
A549 [5] = assay: Induction of apoptosis in human A549 cells assessed as pyknosis at 5 to 15 uM after 24 hrs by DAPI staining based fluorescence microscopic method; format: functional, cell-based
A549 [6] = assay: Induction of apoptosis in human A549 cells assessed as decrease in cell viability at 5 to 15 uM after 24 hrs by phase contrast microscopic method; format: functional, cell-based
A549 [7] = assay: Induction of apoptosis in human A549 cells assessed as chromatin condensation at 5 to 15 uM after 24 hrs by DAPI staining based fluorescence microscopic method; format: functional, cell-based
[8] = Cell cycle arrest in human A549 cells assessed as accumulation at S phase at 10 uM after 24 hrs by propidium iodide staining-based flow cytometry (reference value: 11.5%); format: functional
A549 [9] = assay: Induction of apoptosis in human A549 cells assessed as late apoptotic cells at 5 uM after 24 hrs by Annexin V-FITC/propidium iodide staining based flow cytometry (reference value: 0.8%); format: functional
[10] = Induction of apoptosis in human A549 cells assessed as irregular distribution of chromatin at 10 to 15 uM after 24 hrs by acridine orange/ethidium bromide-dual staining based fluorescence microscopic method; format: functional, cell-based
[11] = Cell cycle arrest in human A549 cells assessed as accumulation at G2/M phase at 15 uM after 24 hrs by propidium iodide staining-based flow cytometry (reference value: 23.3%); format: functional
A549 [12] = assay: Induction of apoptosis in human A549 cells assessed as condensation of chromatin at 5 uM after 24 hrs by acridine orange/ethidium bromide-dual staining based fluorescence microscopic method; format: functional, cell-based

In the case of `Cn1c(/C=C2\SC(=O)N(CC(=O)Nc3nc(-c4ccccc4)cs3)C2=O)nc2ccccc21`, the Activity [1] is reported as 60.4%, the Activity (A549 [2]) is reported as “Dose-dependent effect” and the Activity (A549 [3]) is reported as 3%. The Activity (A549 [4]) was 7.9%, the Activity (A549 [5]) was “Active” and the Activity (A549 [6]) was “Active”. The Activity (A549 [7]) was “Active”, the Activity [8] was 7.9% and the Activity (A549 [9]) was 6.2%. The Activity [10] was “Active”, the Activity [11] was 57.8% and the Activity (A549 [12]) was “Active”.
